Source: patent US8946266B2, “Substituted triazole and imidazole derivatives as gamma secretase modulators” (Janssen Pharmaceuticals, Inc., priority 2009, dated 2015)
Like-named read-outs stand apart in the source and are kept apart here.

How the values were obtained:
[1] = system: Aβ42; assay: γ-secretase-modulating activity, Method 2: Aβ42 Alphalisa in supernatant of SKNBE2 cells carrying APP 695-wild type (Table 3b); type: cell-based; conditions: overnight
Protocol: (§1) Screening was carried out using SKNBE2 cells carrying the APP 695-wild type, grown in Dulbecco's Modified Eagle's Medium/Nutrient mixture F-12 (DMEM/NUT-mix F-12) (HAM) provided by Invitrogen (cat no. 10371-029) containing 5% Serum/Fe supplemented with 1% non-essential amino acids, 1-glutamine 2 mM, Hepes 15 mM, penicillin 50 U/ml (units/ml) en streptomycin 50 μg/ml. Cells were grown to near confluency.
(§2) The screening was performed using a modification of the assay as described in Citron et al (1997) Nature Medicine 3: 67. Briefly, cells were plated in a 384-well plate at 10^4 cells/well in Ultraculture (Lonza, BE12-725F) supplemented with 1% glutamine (Invitrogen, 25030-024), 1% non-essential amino acid (NEAA), penicillin 50 U/ml en streptomycin 50 μg/ml in the presence of test compound at different test concentrations. The cell/compound mixture was incubated overnight at 37° C., 5% CO2. The next day the media were assayed by two sandwich immuno-assays, for Aβ42 and Aβtotal.
(§3) Aβtotal and Aβ42 concentrations were quantified in the cell supernatant using the Aphalisa technology (Perkin Elmer). Alphalisa is a sandwich assay using biotinylated antibody attached to streptavidin coated donorbeads and antibody conjugated to acceptor beads. In the presence of antigen, the beads come into close proximity. The excitation of the donor beads provokes the release of singlet oxygen molecules that trigger a cascade of energy transfer in the acceptor beads, resulting in light emission. To quantify the amount of Aβ42 in the cell supernatant, monoclonal antibody specific to the C-terminus of Aβ42 (JRF/cAβ42/26) was coupled to the receptor beads and biotinylated antibody specific to the N-terminus of Aβ (JRF/AβN/25) was used to react with the donor beads. To quantify the amount of Aβ total in the cell supernatant, monoclonal antibody specific to the N-terminus of Aβ (JRF/AβN/25) was coupled to the receptor beads and biotinylated antibody specific to the mid region of Aβ (biotinylated 4G8) was used to react with the donor beads.
To obtain the values reported in Table 3b, the data were calculated as percentage of the maximum amount of amyloid Beta 42 measured in the absence of the test compound.
(§4) The sigmoidal dose response curves were analyzed using non-linear regression analysis with percentage of the control plotted against the log concentration of the compound. A 4-parameter equation was used to determine the IC50.
(§5) The IC50 values are shown in Table 3b (Aβtot means Aβtotal).

[2] = system: Aβtotal; assay: γ-secretase-modulating activity, Method 2: Aβtotal Alphalisa in supernatant of SKNBE2 cells carrying APP 695-wild type (Table 3b); type: cell-based; conditions: overnight, read-out: IC50 Aβtot
Protocol: as §1, §2, §3, §4, §5

SMILES | IC50 [1] | IC50 [2] | IC50 ([1]; Homo sapiens) | IC50 ([2]; Homo sapiens)
COc1cc(-c2nc(Nc3cc(C(F)(F)F)ccc3F)n(CCC#N)n2)ccc1-n1cnc(C)c1 [Compound 137] | 41 nM | > 10 µM | – | –
Cc1cn(-c2ccc(-c3nc(Nc4cc(C(F)(F)F)ccc4F)n(C)n3)cc2OC(F)(F)F)cn1 [Compound 139] | 794 nM | > 10 µM | – | –
COc1cc(-c2nc(Nc3cc(F)c(C(F)(F)F)cc3F)n(C)n2)ccc1-n1cnc(C)c1 [Compound 141] | 47 nM | > 10 µM | – | –
COc1cc(-c2nc(Nc3cc(F)c(F)cc3C(F)(F)F)n(C)n2)ccc1-n1cnc(C)c1 [Compound 142] | 59 nM | > 10 µM | – | –
COc1cc(-c2nc(Nc3cc(Cl)ccc3C(F)(F)F)n(C)n2)ccc1-n1cnc(C)c1 [Compound 143] | 30 nM | > 10 µM | – | –
COc1cc(-c2nc(Nc3cccc(C(F)(F)F)c3)n(CC(F)(F)F)n2)ccc1-n1cnc(C)c1 [Compound 145] | 38 nM | 2.24 µM | – | –
CCn1nc(-c2ccc(-n3cnc(C)c3)c(OC)c2)nc1Nc1ccccc1C(F)(F)F [Compound 147] | 41 nM | > 10 µM | – | –
Cc1cn(-c2ccc(-c3nc(Nc4ccc(F)cc4C(F)(F)F)n(C)n3)cc2)cn1 [Compound 149] | 1700 nM | > 10 µM | – | –
COc1cc(-c2nc(Nc3ccc(C(F)(F)F)cc3)n(C)n2)ccc1-n1cnc(C)c1 [Compound 151] | 27 nM | 4.07 µM | – | –
COc1cc(-c2nc(Nc3cccc(F)c3C(F)(F)F)n(C)n2)ccc1-n1cnc(C)c1 [Compound 155] | 95 nM | > 10 µM | – | –
COc1cc(-c2nc(Nc3ccc(Cl)cc3C(F)(F)F)n(C)n2)ccc1-n1cnc(C)c1 [Compound 156] | 33 nM | > 10 µM | – | –
COc1cc(-c2nc(Nc3cc(F)cc(C(F)(F)F)c3)n(C)n2)ccc1-n1cnc(C)c1 [Compound 159] | 21 nM | > 10 µM | – | –
COc1nc(-c2nc(Nc3cc(C(F)(F)F)ccc3Cl)n(C)n2)ccc1-n1cnc(C)c1 [Compound 160] | 6 nM | > 10 µM | – | –
COc1cc(-c2nc(Nc3cccc(C(F)(F)F)c3Cl)n(C)n2)ccc1-n1cnc(C)c1 [Compound 163] | 62 nM | > 10 µM | – | –
COc1cc(-c2nc(Nc3cccc(C(F)(F)F)c3C)n(C)n2)ccc1-n1cnc(C)c1 [Compound 164] | 30 nM | > 10 µM | – | –
COc1cc(-c2nc3n(n2)CCOC3c2cc(OC(F)(F)F)ccc2F)ccc1-n1cnc(C)c1 (centres unmarked) [Compound 165] | 138 nM | > 10 µM | – | –
COc1cc(-c2nc3n(n2)CCOC3c2ccc(F)cc2C)ccc1-n1cnc(C)c1 (centres unmarked) [Compound 166] | 65 nM | > 10 µM | – | –
COc1cc(-c2nc(Nc3cc(F)ccc3C(F)(F)F)n(C)n2)ccc1-n1cnc(C)c1 [Compound 168] | 71 nM | > 10 µM | – | –
Cc1cn(-c2ccc(-c3nc(Nc4ccc(F)cc4C(F)(F)F)n(C)n3)nc2)cn1 [Compound 170] | 3240 nM | > 10 µM | – | –
COc1nc(-c2nc(Nc3ccc(F)c(C(F)(F)F)c3)n(C)n2)ccc1-n1cnc(C)c1 [Compound 171] | 42 nM | > 15 µM | – | –
COc1cc(-c2nc(Nc3cc(C(F)(F)F)c(F)cc3F)n(C)n2)ccc1-n1cnc(C)c1 [Compound 172] | 62 nM | > 10 µM | – | –
COc1cc(-c2nc(Nc3cc(F)ccc3C)n(C)n2)ccc1-n1cnc(C)c1 [Compound 173] | 60 nM | > 10 µM | – | –
COc1cc(-c2nc(Nc3cc(Cl)ccc3C)n(C)n2)ccc1-n1cnc(C)c1 [Compound 174] | 20 nM | 7.41 µM | – | –
COc1cc(-c2nc(Nc3ccccc3C(F)(F)F)n(C(C)C)n2)ccc1-n1cnc(C)c1 [Compound 176] | 46 nM | > 10 µM | – | –
COc1cc(-c2nc(Nc3cc(C(F)(F)F)ccc3F)n(C(C)C)n2)ccc1-n1cnc(C)c1 [Compound 178] | 21 nM | 7.94 µM | – | –
COc1cc(-c2nc(Nc3cc(Cl)ccc3OC(F)(F)F)n(C)n2)ccc1-n1cnc(C)c1 [Compound 183] | 13 nM | > 10 µM | – | –
COc1cccc(Nc2nc(-c3ccc(-n4cnc(C)c4)c(OC)c3)nn2C)c1 [Compound 186] | 78 nM | > 10 µM | – | –
COc1ccccc1Nc1nc(-c2ccc(-n3cnc(C)c3)c(OC)c2)nn1C [Compound 187] | 178 nM | > 10 µM | – | –
COc1cc(Cl)ccc1Nc1nc(-c2ccc(-n3cnc(C)c3)c(OC)c2)nn1C [Compound 188] | 178 nM | > 10 µM | – | –
COc1ccc(Cl)c(Nc2nc(-c3ccc(-n4cnc(C)c4)c(OC)c3)nn2C)c1 [Compound 189] | 19 nM | > 10 µM | – | –

Second part, the compound after the results:

IC50 [1] | IC50 [2] | IC50 ([1]; Homo sapiens) | IC50 ([2]; Homo sapiens) | SMILES
214 nM | > 10 µM | – | – | COc1ccc(F)cc1Nc1nc(-c2ccc(-n3cnc(C)c3)c(OC)c2)nn1C [Compound 190]
28 nM | > 10 µM | – | – | COc1cc(Nc2nc(-c3ccc(-n4cnc(C)c4)c(OC)c3)nn2C)ccc1Cl [Compound 191]
41 nM | 9.55 µM | – | – | COc1ccc(Cl)cc1Nc1nc(-c2ccc(-n3cnc(C)c3)c(OC)c2)nn1C [Compound 192]
63 nM | > 10 µM | – | – | COc1cc(Nc2nc(-c3ccc(-n4cnc(C)c4)c(OC)c3)nn2C)ccc1F [Compound 193]
65 nM | > 10 µM | – | – | COc1cc(-c2nc(Nc3cccc(Cl)c3OC)n(C)n2)ccc1-n1cnc(C)c1 [Compound 194]
95 nM | > 10 µM | – | – | COc1ccc(F)c(Nc2nc(-c3ccc(-n4cnc(C)c4)c(OC)c3)nn2C)c1 [Compound 195]
129 nM | > 10 µM | – | – | COc1cc(-c2nc(Nc3c(F)ccc(OC)c3F)n(C)n2)ccc1-n1cnc(C)c1 [Compound 196]
135 nM | > 10 µM | – | – | COc1ccc(Nc2nc(-c3ccc(-n4cnc(C)c4)c(OC)c3)nn2C)c(F)c1 [Compound 197]
15 nM | > 15 µM | – | – | COc1ccc(C(F)(F)F)cc1Nc1nc(-c2ccc(-n3cnc(C)c3)c(OC)n2)nn1C [Compound 201]
25 nM | > 10 µM | – | – | COc1cc(Nc2nc(-c3ccc(-n4cnc(C)c4)c(OC)c3)nn2C)c(F)c(C(F)(F)F)c1 [Compound 202]
100 nM | > 10 µM | – | – | CCOc1ccccc1Nc1nc(-c2ccc(-n3cnc(C)c3)c(OC)c2)nn1C [Compound 205]
166 nM | 8.13 µM | – | – | Cc1cn(-c2ccc(-c3nc(Nc4cccc(C(F)(F)F)c4)n(C)n3)cc2)cn1 [Compound 206]
123 nM | > 10 µM | – | – | Cc1cn(-c2ccc(-c3nc(Nc4cc(C(F)(F)F)ccc4F)n(C)n3)cc2)cn1 [Compound 207]
178 nM | > 10 µM | – | – | COc1cc(-c2nc(Nc3c(F)cccc3C(F)(F)F)n(C)n2)ccc1-n1cnc(C)c1 [Compound 208]
52 nM | 9.55 µM | – | – | COCCn1nc(-c2ccc(-n3cnc(C)c3)c(OC)c2)nc1Nc1cc(C(F)(F)F)ccc1F [Compound 209]
35 nM | > 10 µM | – | – | COc1cc(-c2nc(Nc3cc(C(F)(F)F)cc(Cl)c3F)n(C)n2)ccc1-n1cnc(C)c1 [Compound 210]
17 nM | > 10 µM | – | – | COc1cc(-c2nc(Nc3cc(C(F)(F)F)c(Cl)cc3F)n(C)n2)ccc1-n1cnc(C)c1 [Compound 212]
269 nM | > 10 µM | – | – | COc1cc(F)ccc1Nc1nc(-c2ccc(-n3cnc(C)c3)c(OC)c2)nn1C [Compound 215]
76 nM | > 10 µM | – | – | COc1cc(F)c(F)c(Nc2nc(-c3ccc(-n4cnc(C)c4)c(OC)c3)nn2C)c1 [Compound 216]
14 nM | > 10 µM | – | – | COc1ccc(C(F)(F)F)c(Nc2nc(-c3ccc(-n4cnc(C)c4)c(OC)c3)nn2C)c1 [Compound 218]
91 nM | > 10 µM | – | – | COc1cc(-c2nc(Nc3cccc(F)c3OC)n(C)n2)ccc1-n1cnc(C)c1 [Compound 219]
63 nM | > 10 µM | – | – | COc1cc(F)c(C(F)(F)F)cc1Nc1nc(-c2ccc(-n3cnc(C)c3)c(OC)c2)nn1C [Compound 220]
708 nM | > 10 µM | – | – | COc1cc(-c2nc(Nc3cc(NC(C)=O)ccc3F)n(C)n2)ccc1-n1cnc(C)c1 [Compound 221]
1150 nM | > 10 µM | – | – | COc1cc(-c2nc(Nc3cccc(NC(C)=O)c3)n(C)n2)ccc1-n1cnc(C)c1 [Compound 222]
– | – | 126 nM | > 10 µM | COc1cc(-c2nc(Nc3cc(C(C)=O)ccc3F)n(C)n2)ccc1-n1cnc(C)c1 [Compound 223]
